{"source": "patent US20080102127A1", "about": "“HYBRID LIPID-POLYMER NANOPARTICULATE DELIVERY COMPOSITION” (priority 2006, published 2008)", "test_system": "Escherichia Coli (strain O157)", "test": "Sepsis model induced in mice by Escherichia Coli (strain O157)", "type": "in vivo", "conditions": "BALB/c mice, E. coli O157 2.5×10^8 cells i.p.; single intravenous injection 25 mg/kg (antibiotic base) 4 h post infection; n=10", "procedure": "Antibacterial efficacy of antibiotics in hybrid polymer-lipid nanoparticles was evaluated “in vivo” in a sepsis model, induced in mice (BALB/C line) by Escherichia Coli (strain O157). E. Coli O157 strain was chosen as a model infection as one of the most common pathogens that cause nosocomial infections.\nFemale BALB/c mice 6-8 weeks old were infected intraperitoneally with E. coli (strain O157) at a dose of 2.5×10^8 cells off E. coli per mouse.\nThe infected animals were randomized in groups (n=10) and received one of the following formulations: […]\nStreptomycin formulations: 1) Saline; 2) Streptomycin solution in saline, 5 mg/ml 3) Streptomycin in hybrid polymer-lipid nanoparticles (Example 30 in Table 1), 5 mg/ml.\nGentamycin formulations: 1) Saline 2) Gentamycin solution in saline, 2.5 mg/ml; 3) Gentamycin in hybrid polymer-lipid nanoparticles (Example 24 in Table 1), 2.5 mg/ml.\nThe formulations were injected intraperitoneally (Streptomycin) or intravenously (Gentamycin) in the doses of 1×25 mg/kg (calculated by antibiotic base) 4 h post infection."}
{"substance": "Gentamycin [Gentamycin solution in saline]", "values": [{"measurement": "survival of the animals at Day 10", "result": 20, "unit": "%"}]}
